Values quoted from earlier work in US20040006100A1, “Monotherapy for the treatment of parkinson's disease with cyclooxygenase-2 (COX 2) inhibitor(S)” (priority 2002, published 2004).

- fraction of levodopa that reaches the brain (levodopa alone administered orally): about 1%
- fraction of orally administered levodopa metabolized by decarboxylase and then unable to cross the BBB (oral administration, without carbidopa): Up to 99%
SMILES: N[C@@H](Cc1ccc(O)c(O)c1)C(=O)O [levodopa]
